In patent publication US7118873B2, “Polynucleotides encoding cellular transporters and methods of use thereof” (The University of Connecticut, priority 2000, dated 2006):
Like-named read-outs stand apart in the source and are kept apart here. Blank lines part the entries; values can stand above or below the compound they belong to.

Key:
INDY = target: T1, INDY (Drosophila melanogaster, UniProt Q9VVT2); experiment: Inhibition of [14C] succinate uptake in Xenopus oocytes injected with Indy mRNA; type: cell-based
T1 construct: expressed in transfected cells; host or cells: Xenopus laevis oocytes (stage V and VI) injected with Indy mRNA
Method: Stage V and VI oocytes from Xenopus laevis were dissected and defoliculated. The oocytes were injected with 25–50 ng of Indy mRNA 1 day after isolation. Nutrient uptake was measured 6 to 7 days later. The oocytes were maintained at 18° C. in Barth's solution containing […] gentamycin sulfate, 2.5 mM sodium pyruvate, and 5% heat-inactivated horse serum (Coady et al., Arch. Biochem. Biophys. 283: 130–134, 1990; Pajor and Wright, J. Biol. Chem 26:, 3557–3560, 1992).
Transport measurements were performed as in Pajor, J. Biol. Chem. 270: 5779–5785, 1995. Groups of oocytes were first washed in choline buffer to remove the serum. Transport was initiated by adding 0.4 ml of [^14C] succinate or [^14C] citrate in buffer A. Buffer A comprises 100 mM NaCl, 2 mM KCl, 1 mM MgCl2, and 10 mM HEPES-Tris (pH 7.5). Buffer B is the same as buffer A except the NaCl is replaced by 100 mM choline Cl. For other cation replacement studies, the sodium was replaced by equimolar amounts of the other cations, as their chloride salts. At the completion of the transport time, the nutrient uptake was stopped with 4 washes of 4 ml of ice-cold buffer B. To count the amount of [^14C] taken up by the oocyte, each oocyte was dissolved in 0.5 ml of 10% SDS, and the [^14C] assayed by scintillation counting.
Studies of sodium dicarboxylate cotransporters have indicated a broad range of specificity for di- and tri-carboxylic acids and the exclusion of monocarboxylic acids. The transport specificity of Indy was thus determined as the ability of various compounds to inhibit the uptake of [^14C] succinate. The test inhibitors were added at a concentration of 1 mM, approximately a 100-fold excess of inhibitor.
The relative affinity of INDY for succinate and citrate was determined by adding a constant amount of [^14C] succinate and increasing concentrations of citrate to oocytes expressing INDY.
To further characterize INDY, inhibitors of transport were added to the Indy oocyte system. P-aminohippuric Acid (PAH) is a reference compound used to study transport mechanisms. 4,4′-Diisothyocyanostilbene-2,2′-disulfonic acid (DIDS) is a specific inhibitor of channels. Phloretin is an inhibitor of channels that is known to block protein kinase C.

[1] = target: T2, rat sodium dicarboxylate cotransporter (Rattus norvegicus, UniProt P70545); conditions: cited from earlier work
T2 sequence (P70545 1-587): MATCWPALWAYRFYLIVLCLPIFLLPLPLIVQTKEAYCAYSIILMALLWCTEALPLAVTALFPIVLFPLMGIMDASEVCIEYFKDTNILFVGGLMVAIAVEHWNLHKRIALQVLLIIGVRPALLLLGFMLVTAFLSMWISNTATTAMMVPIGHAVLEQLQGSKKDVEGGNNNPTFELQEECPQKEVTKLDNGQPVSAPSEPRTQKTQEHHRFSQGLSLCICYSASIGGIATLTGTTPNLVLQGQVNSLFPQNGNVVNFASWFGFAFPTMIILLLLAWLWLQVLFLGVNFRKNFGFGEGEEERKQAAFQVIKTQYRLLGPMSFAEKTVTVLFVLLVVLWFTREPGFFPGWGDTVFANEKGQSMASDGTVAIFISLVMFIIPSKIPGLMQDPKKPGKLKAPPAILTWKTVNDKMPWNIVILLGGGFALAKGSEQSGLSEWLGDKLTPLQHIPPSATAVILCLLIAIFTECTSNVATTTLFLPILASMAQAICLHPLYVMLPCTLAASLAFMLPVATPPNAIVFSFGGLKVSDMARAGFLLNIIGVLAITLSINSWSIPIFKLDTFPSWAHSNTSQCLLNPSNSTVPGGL

[2] = test inhibitor at 1 mM, approximately 100-fold excess, FIG. 14

T1 sequence (Q9VVT2 19-590 limits assumed): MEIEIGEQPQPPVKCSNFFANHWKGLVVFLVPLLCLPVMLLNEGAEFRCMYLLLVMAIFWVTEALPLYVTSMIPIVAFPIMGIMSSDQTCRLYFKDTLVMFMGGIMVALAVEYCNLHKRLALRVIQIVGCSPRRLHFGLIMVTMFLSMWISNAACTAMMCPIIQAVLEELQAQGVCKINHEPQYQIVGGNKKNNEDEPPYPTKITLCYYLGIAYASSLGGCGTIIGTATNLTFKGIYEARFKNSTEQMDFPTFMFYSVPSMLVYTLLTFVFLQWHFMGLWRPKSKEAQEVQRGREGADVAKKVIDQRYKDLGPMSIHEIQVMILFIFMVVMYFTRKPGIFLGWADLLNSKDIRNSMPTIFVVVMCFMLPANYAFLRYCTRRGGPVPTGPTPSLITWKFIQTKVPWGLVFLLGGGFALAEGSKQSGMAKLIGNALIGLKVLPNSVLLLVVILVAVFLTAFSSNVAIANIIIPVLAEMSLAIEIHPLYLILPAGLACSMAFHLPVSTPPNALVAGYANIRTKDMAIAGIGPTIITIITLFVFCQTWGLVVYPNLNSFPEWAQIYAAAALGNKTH

Compound: O=C(O)CCC(=O)C(=O)O [alpha-ketoglutarate]
inhibition of [14C] succinate uptake (INDY; [2]): ~100%

Compound: O=S(=O)(O)O [sulfate]
inhibition of succinate transport (in words) (INDY; [2]): little inhibition

Compound: O=C(CCc1ccc(O)cc1)c1c(O)cc(O)cc1O [phloretin, Phloretin]
effect on succinate transport (in words) (INDY; 1 mM phloretin, FIG. 18): no effect
effect on inward and outward currents in sodium-dependent transport [1]: inhibit both inward and outward currents

Compound: N[C@@H](CCC(=O)O)C(=O)O [glutamate]
inhibition of succinate transport (in words) (INDY; [2]): little inhibition

Compound: O=C(O)CCC(=O)O [succinate]
inhibition of [14C] succinate uptake (INDY; [2]): ~100%

Second part, the compound after the results:

inhibition of succinate transport (INDY; 0.1 mM DIDS, FIG. 18): 80%
Compound: O=S(=O)(O)c1cc(N=C=S)ccc1C=Cc1ccc(N=C=S)cc1S(=O)(=O)O [DIDS, 4,4′-Diisothyocyanostilbene-2,2′-disulfonic acid]

inhibition of [14C] succinate uptake (INDY; [2]): ~100%
Compound: O=C(O)/C=C/C(=O)O [fumarate]

inhibition at 100 µM (INDY; citrate at 0.1 mM, FIG. 17): ~50%
inhibition at 1000 µM (INDY; citrate at 1 mM, FIG. 17, read-out: inhibition of succinate uptake): ~90%
inhibition of succinate uptake (in words) (INDY; citrate at 10 mM, FIG. 17): completely inhibits
inhibition at 1000 µM (INDY; test inhibitor at 1 mM, approximately 100-fold excess, FIG. 14, read-out: inhibition of [14C] succinate uptake): ~100%
Compound: O=C(O)CC(O)(CC(=O)O)C(=O)O [citrate]

inhibition of succinate transport (in words) (INDY; [2]): little inhibition
Compound: CC(O)C(=O)O (centres unmarked) [lactate]

effect on succinate transport (in words) (INDY; 10 mM PAH, FIG. 18): no effect
Compound: Nc1ccc(C(=O)NCC(=O)O)cc1 [PAH, P-aminohippuric Acid]
